Experimental data taken from PMC4604124, “In Vitro Characterization of the Pharmacological Properties of the Anti-Cancer Chelator, Bp4eT, and Its Phase I Metabolites” (PLoS ONE, 2015).
Values joined by “and” are separate entries in the source; they are usually repeats but may differ in a detail not shown here. Identical values can stand only once. Like-named read-outs stand apart in the source and are kept apart here.

Columns and labels:
[1] = test system: labile iron pool of MCF-7 cells; test: Calcein-AM assay, access to the labile iron pool; assay type: cell-based, human; design: Calcein fluorescence: unit not given here; conditions: 10 μM
Procedure, shortened: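 MCF-7 cells iron-loaded with ferric ammonium citrate (530 μg/mL) for 24 h, then loaded with 2 μM calcein-AM for 30 min at 37°C in ADS buffer, pH 7.4. Calcein fluorescence dequenching (ex 488/em 530 nm) followed for 10 min after adding 10 μM compound; efficacy expressed as percentage of Bp4eT (100%).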

H9c2 cardiomyoblasts = test: MTT cytotoxicity assay, H9c2 cells; assay type: cell-based, rat; conditions: for IC50: MTT, read-out: IC50
Procedure, shortened: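 Cells were seeded 24 h at 37°C (MCF-7 5,000, HCT116 and A549 2,000, H9c2 10,000 cells/well; H9c2 then given serum- and pyruvate-free DMEM for 24 h) and exposed to compounds for 72 h in medium with 0.1% DMSO. MTT absorbance was read at 570 nm minus 690 nm; IC50 came from viability relative to untreated controls.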

[2] = test system: A549 human lung adenocarcinoma cells; test: MTT cytotoxicity assay, A549 cells; assay type: cell-based; conditions: for MTT, relative to control (0 = 100): A549, 2 000 b/j, sheet E-Bp4eS
Experimental: For cytotoxicity experiments, cancer cells were seeded at a density of 5,000 (MCF-7), 10,000 (HL-60) or 2,000 cells/well (HCT116 and A549) in 96-well plates (TPP) for 24 h/37°C prior to the addition of examined agents. The non-cancerous cells, 3T3 and H9c2 cells, were cultured for 24 h/37°C in 96-well plates at a density of 10,000 cells/well, the medium was then changed to serum- and pyruvate-free DMEM (Sigma-Aldrich) and incubated with the cells for another 24 h/37°C. The cytotoxic effects of Bp4eT and its metabolites were studied at different concentrations after a 72 h/37°C incubation. In order to aid the dissolution of the lipophilic ligands, 0.1% dimethyl sulfoxide (v/v) (DMSO; Sigma-Aldrich) was present in the culture medium of all groups. At this concentration, DMSO had no effect on cellular proliferation or viability.
The viability of cells were determined using an MTT assay (Sigma-Aldrich) according to previously established methods. The optical density of soluble MTT was measured at λ = 570 nm, subtracting the λ = 690 nm background using a Tecan Infinite 200M plate reader (Tecan Group, Männedorf, Switzerland). The viability or proliferation of experimental groups was expressed as a percentage of the untreated controls (100%).
SigmaStat for Windows 3.5 (Systat Software, San Jose, CA, USA) statistical software package was utilized to analyze results. The data are expressed as the mean ± SD of a given number of experiments. Statistical significance was determined using a one-way ANOVA with a Bonferroni post-hoc test or Student’s t-test. The results were considered to be statistically significant when p < 0.05. The IC50 values were calculated using CalcuSyn 2.0 software (Biosoft, Cambridge, UK). Cell cycle analysis was evaluated using MultiCycle AV Software (Phoenix Flow Systems, San Diego, CA, USA).

CCNC(=O)NN=C(c1ccccc1)c1ccccn1 [E-Bp4eS, 2-benzoylpyridine 4-ethylsemicarbazone]
Calcein fluorescence ([1]; 30 sec, mean (průměr)): 0.000 | Calcein fluorescence ([1]; 30 sec, single experiments): 0.000 | Calcein fluorescence ([1]; 60 sec, mean (průměr)): 3.596 | Calcein fluorescence ([1]; 90 sec, mean (průměr)): 0.696 | Calcein fluorescence ([1]; 120 sec, mean (průměr)): 1.617 | Calcein fluorescence ([1]; 300 sec, mean (průměr)): 0.000 | Calcein fluorescence ([1]; 300 sec, single experiments): 0.000 | Calcein fluorescence ([1]; 600 sec, mean (průměr)): 0.000 | Calcein fluorescence ([1]; 600 sec, single experiments): 0.000 | Chelation efficacy: fluorescence of free calcein at t = 600 s as percentage of Bp4eT ([1]; MCF-7, mean of 6 experiments): 0.0001667% | Fluorescence of free calcein at 600 s as percentage of Bp4eT ([1]; MCF-7, single experiments): 0% | IC50 (H9c2 cardiomyoblasts; H9c2, 72 h/37°C, mean ± SD, n ≥ 4): 884 ± 279 µM | MTT, relative to control (0 = 100) (H9c2 cardiomyoblasts; H9c2, 10 000 b/j, 1 μM, průměr (mean), sheet E-Bp4eS): 94.39 | MTT, relative to control (0 = 100) (H9c2 cardiomyoblasts; H9c2, 10 000 b/j, 1 μM, single experiment (date), sheet E-Bp4eS): 95.7668 and 93.0745 and 94.7872 and 93.9178 | MTT, relative to control (0 = 100) (H9c2 cardiomyoblasts; H9c2, 10 000 b/j, 3 μM, průměr (mean), sheet E-Bp4eS): 94.04 | MTT, relative to control (0 = 100) (H9c2 cardiomyoblasts; H9c2, 10 000 b/j, 3 μM, single experiment (date), sheet E-Bp4eS): 97.8721 and 90.4272 and 95.5074 and 92.3686 | MTT, relative to control (0 = 100) (H9c2 cardiomyoblasts; H9c2, 10 000 b/j, 10 μM, průměr (mean), sheet E-Bp4eS): 92.87 | MTT, relative to control (0 = 100) (H9c2 cardiomyoblasts; H9c2, 10 000 b/j, 10 μM, single experiment (date), sheet E-Bp4eS): 97.5948 and 91.5814 and 93.3122 and 89.0018 | MTT, relative to control (0 = 100) (H9c2 cardiomyoblasts; H9c2, 10 000 b/j, 30 μM, průměr (mean), sheet E-Bp4eS): 87.33 | MTT, relative to control (0 = 100) (H9c2 cardiomyoblasts; H9c2, 10 000 b/j, 30 μM, single experiment (date), sheet E-Bp4eS): 92.2111 and 86.1798 and 89.4636 and 81.4505 | MTT, relative to control (0 = 100) (H9c2 cardiomyoblasts; H9c2, 10 000 b/j, 100 μM, průměr (mean), sheet E-Bp4eS): 77.15 | MTT, relative to control (0 = 100) (H9c2 cardiomyoblasts; H9c2, 10 000 b/j, 100 μM, single experiment (date), sheet E-Bp4eS): 79.5863 and 76.8996 and 78.6318 and 73.5016 | MTT, relative to control (0 = 100) (H9c2 cardiomyoblasts; H9c2, 10 000 b/j, 300 μM, průměr (mean), sheet E-Bp4eS): 65.67 | MTT, relative to control (0 = 100) (H9c2 cardiomyoblasts; H9c2, 10 000 b/j, 300 μM, single experiment (date), sheet E-Bp4eS): 61.9338 and 65.3898 and 65.2717 and 70.085 | MTT, relative to control (0 = 100) (H9c2 cardiomyoblasts; H9c2, 10 000 b/j, 1000 μM, průměr (mean), sheet E-Bp4eS): 48.11 | MTT, relative to control (0 = 100) (H9c2 cardiomyoblasts; H9c2, 10 000 b/j, 1000 μM, single experiment (date), sheet E-Bp4eS): 55.0254 and 43.1142 and 38.2886 and 56.005 | IC50 (H9c2 cardiomyoblasts; H9c2, 10 000 b/j, single experiment (date), sheet E-Bp4eS): 683 µM and 1140 µM and 606 µM | IC50 (H9c2 cardiomyoblasts; Rattus norvegicus, H9c2, H9c2, 10 000 b/j, průměr (mean), sheet E-Bp4eS): 884 µM | IC50 (H9c2 cardiomyoblasts; Rattus norvegicus, H9c2, H9c2, 10 000 b/j, single experiment (date), sheet E-Bp4eS): 1100 µM | Therapeutic index, IC50 non-cancerous cells / IC50 neoplastic cells ([2]; 3T3/A549): >4.0 | IC50 ([2]; A549, 72 h/37°C, MTT, mean ± SD, n ≥ 4): 248 ± 28.4 µM | MTT, relative to control (0 = 100) ([2]; 1 μM, průměr (mean)): 93.23 | MTT, relative to control (0 = 100) ([2]; 1 μM, single experiment (date)): 97.4794 and 93.8067 and 89.4519 and 90.2593 and 95.1529 | MTT, relative to control (0 = 100) ([2]; 3 μM, průměr (mean)): 94.11 | MTT, relative to control (0 = 100) ([2]; 3 μM, single experiment (date)): 94.6678 and 89.857 and 93.9888 and 97.9391 | MTT, relative to control (0 = 100) ([2]; 10 μM, průměr (mean)): 92.21 | MTT, relative to control (0 = 100) ([2]; 10 μM, single experiment (date)): 87.4036 and 92.1017 and 93.2476 and 93.9742 and 94.3384 | MTT, relative to control (0 = 100) ([2]; 30 μM, průměr (mean)): 90.64 | MTT, relative to control (0 = 100) ([2]; 30 μM, single experiment (date)): 90.1965 and 95.4707 and 85.9691 and 88.5685 and 92.9924 | MTT, relative to control (0 = 100) ([2]; 100 μM, průměr (mean)): 73.00
